From patent publication US9284350B2, “IAP BIR domain binding compounds” (Pharmascience Inc., priority 2010, dated 2016) come the findings set out here.

Experiment [1] relates to Colorectal carcinoma HCT116 cells. Kind of experiment: Cell death assay (MTT) in combination with HGS ETR1. It counts as cell-based. The settings on record: with HGS ETR1 30 ng/ml, 72 hours, read-out: HCT116+ mapatubimap EC50. Here is the method: Colorectal carcinoma HCT116 cells were cultured as monolayers in 96 well plates at a density of 2000 cells per well in McCoy's 5a medium (HyClone) supplemented with 2.2 g/L sodium bicarbonate, 10% FBS (HyClone) and 1% penicillin/streptomycin (HyClone). 24 hours later, triplicate wells were treated with HGS ETR1 (30 ng/ml) in combination with compound. Cells were incubated in the presence of compound and HGS agonistic Trail receptor antibody, ETR1 (Mapatumamab, 30 ng/ml) for 72 hours. Metabolic viability of remaining cells was assessed by MTT (thiazolyl blue tetrazolium bromide, Sigma) assay.
EC50 values (50% cell survival in the presence of compound as compared to untreated controls) were calculated from survival curves using BioAssay software (CambridgeSoft) and GraphPad Prism (Graph Pad Software Inc.). The results are provided in Table 3, below, wherein A=less than 50 nM; B=less than 250 nM; C=less than 1000 nM; and D=greater than 1000 nM.

Another experiment concerns the target T1, XIAP (Homo sapiens, UniProt P98170).
T1 construct: fused on or other part: GST tag at the N-terminus (pGEX4T vectors)
Kind of experiment: Fluorescence polarization-based competition assay, XIAP. It counts as binding. The settings on record: FP assay, ki derived from IC50. The method, then:
(§1) Binding of compounds of Formula 1 to target BIR domains was measured using a fluorescence-polarization (FP) assay. Fluorescence-polarization was evaluated using a GENios microplate reader (TECAN) Pro instrument with the excitation filter set at 485 nm and the emission filter set at 535 nm. The final amount of protein used in the assay corresponds to the amount of protein necessary to obtain 80% of the maximum FP value in a P1 or P2 fluorescent (FITC) probe saturation experiment. The compounds potency (IC50) and selectivity, was assessed in the presence of the amount of target protein established, fluorescent probe, and a 10 point serial dilution in assay buffer (50 mM Hepes, pH 7.5, 250 mcg/mL γ-globulin, 2 mM DTT, 1% DMSO) of the selected compounds.
(§2) Assays were carried out in duplicate using untreated black 96-well plates (Corning #3915) and a total volume of 100 microliters, containing 25 microliters of fluorescent probe at a final concentration of 2 nM in assay buffer, 25 microliters of diluted compound, 25 microliters of BIR protein into assay buffer and 25 microliters of assay buffer. Buffer only (blank) or probe only in buffer (G-factor) were used as controls for calibration. The plate was incubated at room temperature in the dark for one hour and FP values in millipolarization units (mP) were recorded using Genios Pro FP reader.
(§3) The measured FP values (mP) were then plotted against compound concentration, and IC50 values were calculated based on a sigmoidal dose-response (variable-slope) curve fit using GraphPad Prism version 4.02 for Windows, GraphPad Software, San Diego Calif. USA and/or CambridgeSoft BioAssay Enterprise Version 10.1. The IC50 value is the concentration of test compound at which 50% of the tracer was displaced. ki values were derived from the calculated IC50 values as described above and according to the equation described in Nikolovska-Coleska, Z. (2004) Anal Biochem 332, 261-273. The results are presented in Table 2, wherein A=less than 25 nM; B=less than 250 nM; C=less than 1000 nM; and D=greater than 1000 nM.
For orientation: Fluorescence polarisation rises when a labelled molecule tumbles more slowly, as on binding a larger partner.

The target in another experiment is T2, c-IAP1 (Homo sapiens, UniProt Q13490).
T2 construct: GST (N); made in house; host or cells: E. coli DH5α
Kind of experiment: Fluorescence polarization-based competition assay, c-IAP1. Type of experiment: binding. Conditions: FP assay, ki derived from IC50. The method, then: as §1, §2, §3

Another experiment addresses T3, cIAP2 (Homo sapiens, UniProt Q13489).
T3 construct: GST (N); made in house; host or cells: E. coli DH5α
Kind of experiment: Fluorescence polarization-based competition assay, cIAP2. It counts as binding. Conditions: FP assay, ki derived from IC50. The method, then: as §1, §2, §3

Some results are limits rather than exact numbers.

T3 sequence (Q13489 236-349): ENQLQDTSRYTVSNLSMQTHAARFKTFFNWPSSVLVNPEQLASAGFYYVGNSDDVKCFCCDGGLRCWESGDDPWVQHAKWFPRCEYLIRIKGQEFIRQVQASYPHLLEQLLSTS
T2 sequence (Q13490 251-363): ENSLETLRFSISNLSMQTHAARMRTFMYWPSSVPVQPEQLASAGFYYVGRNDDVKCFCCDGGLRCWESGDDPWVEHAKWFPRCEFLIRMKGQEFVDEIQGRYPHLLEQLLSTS
T1 sequence (P98170 246-497 limits assumed): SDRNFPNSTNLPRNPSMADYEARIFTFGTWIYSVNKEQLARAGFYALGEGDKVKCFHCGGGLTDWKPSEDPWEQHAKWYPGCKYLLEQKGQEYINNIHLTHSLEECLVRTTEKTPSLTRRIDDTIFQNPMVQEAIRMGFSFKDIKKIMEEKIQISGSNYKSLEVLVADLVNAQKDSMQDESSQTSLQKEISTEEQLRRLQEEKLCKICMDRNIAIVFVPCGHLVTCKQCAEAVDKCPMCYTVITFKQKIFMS

In general, EC50 refers to the concentration needed to bring the measured effect to its halfway point. A word on the Ki: it is the equilibrium dissociation constant of an inhibitor or competing ligand from its target. Regarding `CN[C@@H](C)C(=O)N[C@H](C(=O)N1CCC[C@H]1CN(CCc1ccc(F)cc1)C(=O)c1cc(-c2ccccc2)[nH]n1)C(C)(C)C` [Compound 88], the EC50 in experiment [1] was less than 0.25 µM. Moreover, the Ki at XIAP was less than 0.25 µM; at c-IAP1 it was less than 0.025 µM; on cIAP2, less than 0.025 µM.
`CN[C@@H](C)C(=O)N[C@H](C(=O)N1CCC[C@H]1CN(CCc1ccc(F)cc1)C(=O)c1nnn(-c2ccc(F)cc2)n1)C(C)(C)C` [Compound 126]: the inhibitory constant (Ki) at XIAP was less than 0.25 µM; at c-IAP1, less than 0.025 µM; at cIAP2 it was less than 0.025 µM.
In the case of `CN[C@@H](C)C(=O)N[C@H](C(=O)N1CCC[C@H]1CN(CCc1ccccc1)C(=O)c1cn2cccnc2n1)C1CCCC1` [Compound 33], the EC50 in experiment [1] is less than 0.25 µM. Also, the Ki is less than 0.25 µM on XIAP and less than 0.025 µM on c-IAP1.
As for `CN[C@@H](C)C(=O)N[C@H](C(=O)N1CCC[C@H]1CN(CCc1ccccc1)C(=O)c1ccc[nH]1)C(C)(C)C` [Compound 23], in experiment [1], the EC50 was less than 0.25 µM. Besides, the Ki on XIAP and on c-IAP1 was less than 0.025 µM each time.
For the molecule `CN[C@@H](C)C(=O)N[C@H](C(=O)N1CCC[C@H]1CN(CCc1ccccc1)C(=O)c1cc2ccccc2n1C)C(C)(C)C` [Compound 26], the 50% effective concentration (EC50) in experiment [1] is less than 1 µM. Also, the Ki at XIAP was less than 0.25 µM; on c-IAP1, less than 0.025 µM.
On to `CN[C@@H](C)C(=O)N[C@H](C(=O)N1CCC[C@H]1CN(CCc1ccccc1)C(=O)c1ncc[nH]1)C(C)(C)C` [Compound 22], for which, in experiment [1], the EC50 is less than 0.25 µM. For the same molecule, the Ki is less than 0.25 µM at XIAP and less than 0.025 µM at c-IAP1.
Turning to `CN[C@@H](C)C(=O)N[C@H](C(=O)N1CCC[C@H]1CN(CCc1ccccc1)C(=O)c1c[nH]c2ccccc12)C(C)(C)C` [Compound 24], the EC50 in experiment [1] is less than 0.25 µM. Besides, the figures for the inhibition constant Ki at XIAP and at c-IAP1 were less than 0.25 µM and less than 0.025 µM, respectively.
For the molecule `CN[C@@H](C)C(=O)N[C@@H](CN(C)C)C(=O)N1CCC[C@H]1CN(CCc1ccc(F)cc1)C(=O)c1cn2ccccc2n1` [Compound 57], the EC50 in experiment [1] was less than 1 µM. Besides, the inhibition constant Ki on XIAP was less than 1 µM; at c-IAP1, less than 0.025 µM.
`CN[C@@H](C)C(=O)N[C@H](C(=O)N1CCC[C@H]1CN(CCc1ccc(F)cc1)C(=O)c1cn(-c2ccc(F)cc2)nn1)C(C)(C)C` [Compound 125]: the Ki was less than 0.25 µM on XIAP, less than 0.025 µM on c-IAP1 and less than 0.025 µM on cIAP2.
As to `CN[C@@H](C)C(=O)N[C@H](C(=O)N1CCC[C@H]1CN(CCc1ccc(F)cc1)C(=O)c1cn2cc(F)ccc2n1)C(C)(C)C` [Compound 39], in experiment [1], the EC50 was less than 0.25 µM. In addition, the Ki at XIAP was less than 0.25 µM; on c-IAP1 it was less than 0.025 µM.
Turning to `CN[C@@H](C)C(=O)N[C@H](C(=O)N1CCC[C@H]1CN(CCc1ccc(F)cc1)C(=O)c1cn2cc(O)cnc2n1)C(C)(C)C` [Compound 46], the EC50 in experiment [1] is less than 1 µM. Also, the Ki is less than 0.25 µM at XIAP and less than 0.025 µM at c-IAP1.
For `CN[C@@H](C)C(=O)N[C@H](C(=O)N1CCC[C@H]1CN(CCc1ccccc1)C(=O)c1cc2ccccc2[nH]1)C(C)(C)C` [Compound 27] the same measures were less than 1 µM, less than 0.25 µM and less than 0.025 µM.
As for `CC[C@H](NC)C(=O)N[C@H](C(=O)N1CCC[C@H]1CN(CCc1ccccc1)C(=O)c1cn2cccnc2n1)C1CCCCC1` [Compound 1], in experiment [1], the EC50 is less than 0.25 µM. Also, the figures for the Ki on XIAP and on c-IAP1 were less than 1 µM and less than 0.025 µM, respectively.
`CN[C@@H](C)C(=O)N[C@H](C(=O)N1CCC[C@H]1CN(CCc1ccccc1)C(=O)c1cn(C)cn1)C(C)(C)C` [Compound 34]: the EC50 in experiment [1] was less than 0.25 µM. Moreover, the Ki at XIAP is less than 0.25 µM; at c-IAP1 it was less than 0.025 µM.
With `CN[C@@H](C)C(=O)N[C@H](C(=O)N1CCC[C@H]1CN(CCc1ccccc1)C(=O)c1cn2cccnc2n1)C1CCOCC1` [Compound 3], in experiment [1], the EC50 was less than 1 µM. The values for the Ki on XIAP and at c-IAP1 were less than 0.25 µM and less than 0.025 µM, respectively.
